# Results as given in US20230321083A1, “Inhibitors of GPR174 and Uses Thereof” (Omeros Corporation, priority 2016, published 2023).
# Legend:
# Format in all cases: cell-based
# [1] = molecular target: GPR174 (Homo sapiens, UniProt Q9BXC1); assay: CRE-Luc reporter Gs signaling assay, cells transfected with GPR174; design: host or cells: HEK293 or CHO cell lines (ATCC); details: CRE-Luc reporter
# Method: (§1) Compounds were tested in the reporter system with increasing concentrations of GPR174-interacting compounds. GPR174 construct pCMV6-XL4-GPR174 or ADBR2, reporter of interest, pCRE-Luc or GL4.29 (3000 ng), and TK-renilla as an internal control (10 ng) with lipofectamine 2000 (60 ug) (Invitrogen, CA) according to the manufacturer's directions.
# (§2) The DNA/lipofectamine 2000 mix (3000 μL) was incubated at room temperature for 30 minutes and then added into a 10 cm culture dish (Corning, NY) containing 70-90% confluent cultured cells, typically HEK293 or CHO cell lines (ATCC, VA), in 15 mL of media. The cells were further incubated for 4-6 hours at 37° C. and then media were removed and cells were detached with 2 mL trypsin (Life Technologies, CA). Media (26 mL) were added to the detached cells and 120 μL of transfected cells were transferred to each well on a 96-well plate. Increasing concentration of each compound in DMSO (1.2 μl) was added to the cells after plating into the 96-well plate. The cells were further incubated at 37° C. for various times. The media were removed and the cells lysed. Luciferase and renilla activities were measured with the Dual-luciferase assay system (Promega, WI) according to the manufacturer's directions. Typically, lysis buffer (25 μL) was added to the cells and incubated at room temperature for 20-30 minutes to allow for the cells to lyse. The lysate (10 μL) was measured for luciferase and renilla activity with LARII and Stop&Glo reagent (50 μL each) with a SpectraMax L (Molecular Devices, CA). Data were analyzed with either Excel (Microsoft, WA) or Prism 4.03 (GraphPad, CA).
# (§3) ADBR2 is a GPCR, like GPR174, that activates the Gs signaling pathway.
# [2] = molecular target: T1, ADBR2 (Homo sapiens, UniProt P07550); assay: CRE-Luc reporter Gs signaling assay, control receptor ADBR2
# T1 construct: host or cells: HEK293 or CHO cell lines (ATCC)
# Method: as §1, §2, §3
# [3] = system: CTLA4 expression in human PBMC T cells; assay: CTLA4 expression on T cell subsets in human PBMC cultures; details: 0.19-6.0 μM; one day post-stimulation; dose-dependent
# Method: PBMC cells from a single donor were cultured overnight with additional irradiated antigen-presenting cells (APC) in the presence of various concentrations of GPR174 inhibitory compound #10 (0.019 to 6 μM) or equivalent concentrations of vehicle (DMSO). Anti-CD3 (OKT3) was then added to the cultures for an additional 24 hours. The cells were analyzed by flow cytometry for expression of FOXP3, CTLA-4, CD4, CD3, CD45RA and CD25.
# [4] = system: human PBMCs; assay: Cytokines in culture supernatants of stimulated human PBMCs (ELISA / LEGENDplex)
# Method: The effect of compound #10 on IL-2 and IFN-γ production in human PBMCs was determined as follows. PBMCs from a single donor were adjusted to a density of 2×10^6 cells/mL, stimulated with 100 ng/mL of anti-CD3 and 100 ng/mL of anti-CD28 antibodies and treated with 1 μM, 3 μM, or 10 μM of compound #10. Supernatant from these cells was taken on day 2 post-stimulation and the levels of IL-2 and IFN-γ were determined by ELISA assay using Ready-SET-Go ELISA kits from Affimetrix Ebioscience according to the manufacturer's instructions.
# The effect of compound #10 on IL-2 production in human PBMCs was determined as follows. […] Supernatant from these cells was taken on day 3 post-stimulation and the levels of IL-2 were determined by ELISA assay using Ready-SET-Go™ ELISA kits from Affimetrix Ebioscience and LEGENDplex™ bead-based immunoassays from BioLegend according to the manufacturer's instructions.
# The effect of compound #10 on IL-2 production in human PBMC from each donor was determined as follows. PBMC from each donor were adjusted to a density of 2×10^6 cells/mL, stimulated with 100 ng/mL of anti-CD3 and 100 ng/mL of anti-CD28 antibodies and treated with 30 μM compound #10. Supernatant from these cells was taken on day 2 post-stimulation and the levels of IL-2 were determined by ELISA assay using LEGENDplex™ bead-based immunoassays from BioLegend (San Diego, CA) according to the manufacturer's instructions.
# The effect of compound #10 on the production of a panel of additional cytokines (interleukin 5 (IL-5), interleukin 13 (IL-13), interleukin 6 (IL-6), interleukin 9 (IL-9), interleukin 10 (IL-10), interferon gamma (IFN-γ), tumor necrosis factor alpha (TNF-α), interleukine 17A (IL-17A), interleukin 17F (IL-17F), interleukin 4 (IL-4) and interleukin 22 (IL-22)) in pooled human PBMC obtained from eight donors was determined as follows. PBMC from eight donors were pooled, then adjusted to a density of 2×10^6 cells/mL, stimulated with 100 ng/mL of anti-CD3 and 100 ng/mL of anti-CD28 antibodies and treated with 30 μM compound #10. Supernatant from these cells was taken on day 2 post-stimulation and the levels of IL-5, IL-13, IL-6, IL-9, IL-10, IFN-γ, TNF-α, IL-17A, IL-17F, IL-4 and IL-22 were determined by ELISA using LEGENDplex™ bead-based immunoassays from BioLegend (San Diego, CA) according to the manufacturer's instructions.
# [5] = system: PD-L1, TIGIT, AREG expression in human T cells; assay: PD-L1, TIGIT and AREG expression on human T cells in PBMC cultures; details: 1.25 or 5 μM; one day post-stimulation; dose-dependent
# Method: PBMC cells from a single donor mixed with additional irradiated antigen-presenting cells (APC) and anti-CD3 antibodies (UCHT1) were incubated in the presence of various concentrations of GPR174 inhibitory compound #10 (1.25 to 5 μM) or equivalent concentrations of vehicle (DMSO). The cells were analyzed by flow cytometry for expression of CD4, CD8, PD-L1, TIGIT and AREG.
# [6] = day 2, 30 μM, PBMC from eight donors, p<0.001
# [7] = day 2, 30 μM, PBMC from eight donors, p<0.05
# Chain of GPR174 (Q9BXC1 whole entry): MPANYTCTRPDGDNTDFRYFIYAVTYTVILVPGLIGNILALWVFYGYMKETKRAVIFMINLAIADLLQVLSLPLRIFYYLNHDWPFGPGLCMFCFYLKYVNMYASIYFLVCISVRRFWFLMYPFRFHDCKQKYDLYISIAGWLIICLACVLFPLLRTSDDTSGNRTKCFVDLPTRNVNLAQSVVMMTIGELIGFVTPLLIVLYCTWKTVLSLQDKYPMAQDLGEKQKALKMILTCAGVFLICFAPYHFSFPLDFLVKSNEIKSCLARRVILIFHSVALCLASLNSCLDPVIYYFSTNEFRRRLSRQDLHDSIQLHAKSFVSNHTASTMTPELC
# T1 sequence (P07550 whole entry): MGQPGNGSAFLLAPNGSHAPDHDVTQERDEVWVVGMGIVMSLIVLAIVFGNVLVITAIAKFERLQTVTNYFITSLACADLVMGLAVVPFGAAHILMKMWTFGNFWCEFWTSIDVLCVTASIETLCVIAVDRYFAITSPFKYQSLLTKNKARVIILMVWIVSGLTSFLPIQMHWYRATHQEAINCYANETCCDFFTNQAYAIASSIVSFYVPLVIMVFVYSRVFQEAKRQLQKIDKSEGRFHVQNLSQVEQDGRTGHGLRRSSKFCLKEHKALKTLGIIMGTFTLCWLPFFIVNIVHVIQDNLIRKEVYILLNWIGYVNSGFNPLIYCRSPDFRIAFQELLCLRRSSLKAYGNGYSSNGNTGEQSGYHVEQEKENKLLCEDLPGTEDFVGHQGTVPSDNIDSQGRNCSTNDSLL
compound,measurement,setting,value
CC1CCN(c2cc(N3CCN(S(=O)(=O)c4ccccc4)CC3)c([N+](=O)[O-])cc2F)CC1 [Compound 10],effect on Gs pathway in the presence of GPR174,[1],inhibited the Gs pathway
same,effect on Gs pathway in the presence of ADBR2,[2],did not inhibit the Gs pathway
same,CTLA4 positive fraction of memory Treg (CD45RA−FOXP3+),[3],reduced
same,CTLA4 positive fraction of memory non-Treg (CD45RA−FOXP3−),[3],reduced
same,CTLA4 positive fraction of naïve non-Treg cells (CD45RA+FOXP3−),[3],reduced
same,CTLA-4 positive fraction of naïve Treg cells (CD45RA+FOXP3+),[3],reduced
same,IL-6 in culture supernatants (fold over vehicle),[4]; [6],statistically significant fold increase
same,IL-17A in culture supernatants (fold over vehicle),[4]; [6],statistically significant fold decrease
same,IFN-γ in culture supernatants (fold over vehicle),[4]; [7],statistically significant fold increase
same,IL-10 in culture supernatants (fold over vehicle),[4]; [7],statistically significant fold increase
same,TNF-α in culture supernatants (fold over vehicle),[4]; [7],statistically significant fold increase
same,IL-2 (pg/mL) in culture supernatants,"[4]; day 3 post-stimulation, 3, 10, 30, 60 μM, single donor",increased IL-2 levels in culture supernatants in a dose-dependent manner
same,fraction of human CD4+ T cells with AREG positive staining,[5],reduced
same,fraction of human CD4+ T cells with PD-L1 positive staining,[5],reduced
same,fraction of human CD8+ T cells with TGIT positive staining,[5],reduced
